Each compound was assayed against human ACC2 (Homo sapiens (Human), UniProt O00763) (assay: ACC2 assay, spectrophotometric 384 well assay (NADH-linked kinetic method)). Conditions: human ACC2 construct lacking the 128 N-terminal amino acids; coupled lactate dehydrogenase/pyruvate kinase reaction, 340 nm, 25° C.
Chain of human ACC2 (O00763 129-2458): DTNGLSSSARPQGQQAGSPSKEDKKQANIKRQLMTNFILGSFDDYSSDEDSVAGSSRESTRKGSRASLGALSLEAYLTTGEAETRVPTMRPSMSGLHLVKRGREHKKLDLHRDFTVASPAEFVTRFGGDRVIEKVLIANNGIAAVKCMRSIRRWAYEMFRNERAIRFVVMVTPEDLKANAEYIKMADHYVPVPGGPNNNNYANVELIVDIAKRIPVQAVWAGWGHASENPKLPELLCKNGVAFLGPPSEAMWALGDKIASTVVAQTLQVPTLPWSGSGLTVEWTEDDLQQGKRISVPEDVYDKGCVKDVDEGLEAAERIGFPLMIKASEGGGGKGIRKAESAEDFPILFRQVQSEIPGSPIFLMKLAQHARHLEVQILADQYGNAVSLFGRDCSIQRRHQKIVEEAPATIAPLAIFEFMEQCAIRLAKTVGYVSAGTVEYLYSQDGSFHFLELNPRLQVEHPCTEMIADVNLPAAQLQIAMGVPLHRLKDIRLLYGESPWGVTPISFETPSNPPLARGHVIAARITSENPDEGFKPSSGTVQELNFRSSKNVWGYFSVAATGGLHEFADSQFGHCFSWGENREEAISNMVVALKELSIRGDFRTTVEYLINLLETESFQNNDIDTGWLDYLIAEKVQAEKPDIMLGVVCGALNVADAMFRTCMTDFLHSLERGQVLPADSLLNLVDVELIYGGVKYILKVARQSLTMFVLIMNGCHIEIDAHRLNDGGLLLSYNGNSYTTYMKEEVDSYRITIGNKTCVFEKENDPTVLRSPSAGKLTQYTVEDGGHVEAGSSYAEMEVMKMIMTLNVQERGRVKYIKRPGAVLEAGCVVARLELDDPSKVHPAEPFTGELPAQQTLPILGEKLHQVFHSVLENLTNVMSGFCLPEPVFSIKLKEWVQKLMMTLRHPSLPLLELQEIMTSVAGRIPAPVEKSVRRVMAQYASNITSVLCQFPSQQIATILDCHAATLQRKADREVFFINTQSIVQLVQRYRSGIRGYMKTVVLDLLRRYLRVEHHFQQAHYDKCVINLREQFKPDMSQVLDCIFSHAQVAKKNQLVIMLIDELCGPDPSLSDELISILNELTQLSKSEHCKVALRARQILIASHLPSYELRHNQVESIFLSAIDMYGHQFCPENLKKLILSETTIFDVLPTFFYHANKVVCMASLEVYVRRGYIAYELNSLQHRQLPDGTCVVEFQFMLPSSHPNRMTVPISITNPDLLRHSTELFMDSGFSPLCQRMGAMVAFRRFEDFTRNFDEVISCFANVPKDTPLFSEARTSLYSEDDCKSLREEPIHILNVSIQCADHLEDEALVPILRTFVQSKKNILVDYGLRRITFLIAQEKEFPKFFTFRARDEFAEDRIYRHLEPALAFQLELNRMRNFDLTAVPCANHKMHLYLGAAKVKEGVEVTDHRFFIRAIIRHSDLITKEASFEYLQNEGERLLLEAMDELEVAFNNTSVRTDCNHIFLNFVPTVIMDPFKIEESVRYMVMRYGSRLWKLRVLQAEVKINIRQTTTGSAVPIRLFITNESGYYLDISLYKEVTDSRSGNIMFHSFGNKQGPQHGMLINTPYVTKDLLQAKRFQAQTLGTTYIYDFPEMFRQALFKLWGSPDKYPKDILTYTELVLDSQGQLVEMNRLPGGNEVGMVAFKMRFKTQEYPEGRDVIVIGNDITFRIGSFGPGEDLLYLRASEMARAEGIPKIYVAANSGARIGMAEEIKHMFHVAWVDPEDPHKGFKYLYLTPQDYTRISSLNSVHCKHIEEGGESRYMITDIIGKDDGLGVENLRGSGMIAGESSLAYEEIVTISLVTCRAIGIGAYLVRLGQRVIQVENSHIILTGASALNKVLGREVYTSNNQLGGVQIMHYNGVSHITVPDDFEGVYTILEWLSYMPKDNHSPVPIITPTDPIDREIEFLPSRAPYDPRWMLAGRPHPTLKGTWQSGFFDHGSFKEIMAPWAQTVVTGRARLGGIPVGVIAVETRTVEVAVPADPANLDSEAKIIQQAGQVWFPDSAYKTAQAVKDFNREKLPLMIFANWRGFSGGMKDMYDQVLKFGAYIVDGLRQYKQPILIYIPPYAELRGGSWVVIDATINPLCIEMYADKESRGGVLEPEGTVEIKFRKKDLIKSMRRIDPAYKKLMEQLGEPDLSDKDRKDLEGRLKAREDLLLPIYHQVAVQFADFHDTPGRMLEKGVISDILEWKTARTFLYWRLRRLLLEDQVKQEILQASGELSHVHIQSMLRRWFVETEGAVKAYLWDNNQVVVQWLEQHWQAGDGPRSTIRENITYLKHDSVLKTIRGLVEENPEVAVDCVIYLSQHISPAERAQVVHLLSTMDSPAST
Format: biochemical
Procedure: Spectrophotometric 384 Well Assay
Malonyl CoA formation by acetyl CoA carboxylases is stoichometrically linked to the consumption of ATP. ACC2 activity is measured in a NADH-linked kinetic method measuring ADP generated during the ACC reaction using a coupled lactate dehydrogenase/pyruvate kinase reaction.
For biological testing, a human ACC2 construct which lacks the 128 amino acids at the N-terminus for increased solubility (nt 385-6966 in Genbank entry AJ575592) is cloned. The protein is then expressed in insect cells using a baculoviral expression system. Protein purification is performed by anion exchange.
All compounds are dissolved in dimethyl sulfoxide (DMSO) to a concentration of 10 mM.
The enzymatic reaction is then started by addition of a mixture of NADH, acetyl Coenzyme A (both 2000 μM f.c.) and ATP (500 uM f.c.). The decrease of the optical density (slope S) is then determined at 25° C. at a wavelength of 340 nm over 15 minutes in a spectrophotometric reader.
Each assay microtiter plate contains wells with vehicle instead of compound as controls for the non-inhibited enzyme (100% CTL; ‘HIGH’) and wells without acetyl-CoA as controls for non-specific NADH degradation (0% CTL; ‘LOW’).
The slope S is used for calculation of % CTL=(S(compound)−S(‘LOW’))/(S(‘HIGH’)−S(‘LOW’))*100.
For IC50 value determination, the sample slope in the presence of the test compound after subtraction of the low controls (S(compound)−S(‘LOW’)) are used.
An IC50 value is derived from the compound slopes at different dosages after subtraction of the low controls (S(compound)−S(‘LOW’)) by non-linear regression curve fitting (equation y=(A+((B−A)/(1+((C/x)^D))))).
CC(=O)N[C@@H](C)c1ccc(O[C@@H]2CCN(c3ccnc(OCCO)c3F)C2)cc1 [Example 9.75] gave an IC50 of 881 nM. CC(=O)N[C@@H](C)c1ccc(O[C@@H]2CCN(c3cc(N(C)C)ncc3F)C2)cc1 [Example 10.24] gave an IC50 of 285 nM. Work on CC(=O)N[C@@H](C)c1ccc(O[C@@H]2CCN(c3ccnc(OC(C)C)c3Cl)C2)cc1 [Example 9.80] yielded an IC50 of 138 nM. In the case of CC(=O)N[C@@H](C)c1ccc(O[C@@H]2CCN(c3cc(N4CCOCC4)ncc3F)C2)cc1 [Example 10.22], the IC50 is reported as 552 nM. Compound COCCN(C)c1cccc(N2CC[C@@H](Oc3ccc([C@H](C)NC(C)=O)cc3)C2)n1 [Example 10.28] has an IC50 of 142 nM. C[C@H](NC(=O)CC#N)c1ccc(OC2CCN(c3ccc(OCC4CC4(F)F)cn3)C2)cc1 (some centres unmarked) [Example 2.119] was tested, and the IC50 was 235 nM. Work on CCC(C)Oc1cc(N2CC[C@@H](Oc3ccc([C@H](C)NC(C)=O)cc3)C2)ccn1 (some centres unmarked) [Example 9.4] yielded an IC50 of 75 nM. CC(C)Oc1cc(N2CCC(Oc3ccc([C@H](C)NC(=O)c4cncs4)cc3)C2)ccn1 (some centres unmarked) [Example 2.24] was tested, and the IC50 was 199 nM. CC(=O)N[C@@H](C)c1ccc(OC2CCN(c3cccc(C4CC4)n3)C2)cc1 (some centres unmarked) [Example 1.38] gave an IC50 of 95 nM. For CC(=O)N[C@@H](C)c1ccc(OC2CCN(c3cccc(C4CCC4)n3)C2)cc1 (some centres unmarked) [Example 1.86], the IC50 was 89 nM. For CC(=O)N[C@@H](C)c1ccc(O[C@@H]2CCN(c3ccnc(O[C@@H]4CCOC4)c3)C2)cc1 [Example 9.10], the IC50 was 184 nM. CC(=O)N[C@@H](C)c1ccc(OC2CCN(c3cc(OCC4CC4(F)F)ncc3F)C2)cc1 (some centres unmarked) [Example 1.76] gave an IC50 of 63 nM. CC(=O)N[C@@H](C)c1ccc(O[C@@H]2CCN(c3ccnc(N4CCC(C)(O)C4)c3Cl)C2)cc1 (some centres unmarked) [Example 10.54] gave an IC50 of 114 nM. With C[C@H](NC(=O)c1cnco1)c1ccc(OC2CCN(c3cccc(C(F)(F)F)n3)C2)cc1 (some centres unmarked) [Example 2.122] the IC50 was 85 nM. Work on CCC(=O)Nc1nc(C)c(C(=O)N[C@@H](C)c2ccc(O[C@@H]3CCN(c4ccnc(OCC5CC5)c4Cl)C3)cc2)s1 [Example 9.73] yielded an IC50 of 45 nM. In the case of CC(=O)N[C@@H](C)c1ccc(O[C@@H]2CCN(c3ccnc(OCC(C)C)c3)C2)cc1 [Example 9.2], the IC50 is reported as 41 nM. With CCC(=O)N[C@@H](C)c1ccc(OC2CCN(c3cccc(C(F)(F)F)n3)C2)cc1 (some centres unmarked) [Example 2.41] the IC50 was 315 nM. CC(=O)N[C@@H](C)c1ccc(OC2CCN(c3ccc(OC4CC4)cn3)C2)cc1 (some centres unmarked) [Example 1.66] was tested, and the IC50 was 384 nM. For CCCOc1ccc(N2CCC(Oc3ccc([C@H](C)NC(C)=O)cc3)C2)c(C#N)n1 (some centres unmarked) [Example 1.13], the IC50 was 345 nM. Compound CC(=O)N[C@@H](C)c1ccc(OC2CCN(c3ncc(OC4CCCC4)cc3F)C2)cc1 (some centres unmarked) [Example 1.32] has an IC50 of 50 nM. C[C@H](NC(=O)[C@@H](C)O)c1ccc(OC2CCN(c3ccnc(OCC(F)F)c3)C2)cc1 (some centres unmarked) [Example 2.105] gave an IC50 of 784 nM. CCCNc1nccc(N2CCC(Oc3ccc([C@H](C)NC(=O)NCC)cc3)C2)c1F (some centres unmarked) [Example 5.7] showed an IC50 of 117 nM. C[C@H](NC(=O)c1cn[nH]c1)c1ccc(OC2CCN(c3ccnc(OCC(F)F)c3)C2)cc1 (some centres unmarked) [Example 2.99] showed an IC50 of 85 nM. Compound C[C@H](NC(=O)c1cnco1)c1ccc(OC2CCN(c3ccnc(OCC(F)F)c3)C2)cc1 (some centres unmarked) [Example 2.111] has an IC50 of 107 nM. C[C@H](NC(=O)c1cncs1)c1ccc(O[C@@H]2CCN(c3ccnc(OCC4CC4)c3)C2)cc1 [Example 9.63] gave an IC50 of 55 nM. CC(=O)N[C@@H](C)c1ccc(O[C@@H]2CCN(c3ccnc(C(F)(F)F)c3)C2)cc1 [Example 8.4] gave an IC50 of 438 nM. For CC(=O)N[C@@H](C)c1ccc(O[C@@H]2CCN(c3ccc(OCC(F)F)cn3)C2)cc1 [Example 11.1, N—((S)-1-(4-((R)-1-(5-(2,2-Difluoroethoxy)pyridin-2-yl)pyrrolidin-3-yloxy)phenyl)ethyl)acetamide], the IC50 was 510 nM. In the case of Cc1nocc1C(=O)N[C@@H](C)c1ccc(OC2CCN(c3ccnc(OCC(F)F)c3)C2)cc1 (some centres unmarked) [Example 2.95], the IC50 is reported as 49 nM. CC(=O)N[C@@H](C)c1ccc(OC2CCN(c3ccnc(OCC4CC4)c3)C2)cc1 (some centres unmarked) [Example 1.15] gave an IC50 of 60 nM. Compound CCC(C)Oc1ccc(N2CCC(Oc3ccc([C@H](C)NC(C)=O)cc3)C2)nc1 (some centres unmarked) [Example 1.28] has an IC50 of 245 nM. CCC(=O)N[C@@H](C)c1ccc(OC2CCN(c3ccc(OC[C@H]4CC4(F)F)cn3)C2)cc1 (some centres unmarked) [Example 2.91] was tested, and the IC50 was 67 nM. Compound CC(=O)N[C@@H](C)c1ccc(O[C@@H]2CCN(c3cccc(N4CCCCC4)n3)C2)cc1 [Example 10.4] has an IC50 of 261 nM. In the case of CC(=O)N[C@@H](C)c1ccc(O[C@@H]2CCN(c3cccc(N4CCOCC4C)n3)C2)cc1 (some centres unmarked) [Example 10.49], the IC50 is reported as 785 nM. For CC(=O)N[C@@H](C)c1ccc(O[C@@H]2CCN(c3ccnc(OC(C)C)c3F)C2)cc1 [Example 9.83], the IC50 was 80 nM. CCOc1cnc(N2CCC(Oc3ccc([C@H](C)NC(C)=O)cc3)C2)c(Cl)c1 (some centres unmarked) [Example 1.78] was tested, and the IC50 was 198 nM. Compound C[C@H](NC(=O)c1ccnnc1)c1ccc(OC2CCN(c3ccnc(OCC(F)F)c3)C2)cc1 (some centres unmarked) [Example 2.108] has an IC50 of 714 nM. Work on COc1c(N2CC[C@@H](Oc3ccc([C@H](C)NC(C)=O)cc3)C2)ccnc1OCC(C)(C)OC [Example 1.149] yielded an IC50 of 156 nM. With CC(=O)N[C@@H](C)c1ccc(OC2CCN(c3ncc(OC4CCC4)cc3F)C2)cc1 (some centres unmarked) [Example 1.20] the IC50 was 65 nM. CCCOc1cc(C)c(N2CCC(Oc3ccc([C@H](C)NC(C)=O)cc3)C2)cn1 (some centres unmarked) [Example 1.51] gave an IC50 of 401 nM. Compound CC(=O)N[C@@H](C)c1ccc(O[C@@H]2CCN(c3ccnc(OCC4CC4C)c3)C2)cc1 (some centres unmarked) [Example 9.23] has an IC50 of 45 nM. With COc1c(N2CC[C@@H](Oc3ccc([C@H](C)NC(C)=O)cc3)C2)ccnc1OCC(C)C [Example 1.120] the IC50 was 32 nM. In the case of CC(=O)NC1CCCN(C(=O)N[C@@H](C)c2ccc(OC3CCN(c4ccc(OCC5CC5(F)F)cn4)C3)cc2)C1 (some centres unmarked) [Example 3.21], the IC50 is reported as 363 nM. In the case of CC(=O)N[C@@H](C)c1ccc(O[C@@H]2CCN(c3ccnc(N4CCC(F)(F)C4)c3C)C2)cc1 [Example 1.124], the IC50 is reported as 76 nM. Work on C[C@H](NC(=O)c1ccnnc1)c1ccc(OC2CCN(c3ccnc(OCC4CC4)c3)C2)cc1 (some centres unmarked) [Example 2.88] yielded an IC50 of 278 nM. CC(=O)N[C@@H](C)c1ccc(OC2CCN(c3ccc(OCC4CC4)nc3)C2)cc1 (some centres unmarked) [Example 1.14] showed an IC50 of 394 nM. CCCOc1nccc(N2CC[C@@H](Oc3ccc([C@H](C)NC(C)=O)cc3)C2)c1Cl [Example 9.78] showed an IC50 of 57 nM. COC(=O)N[C@@H](C)c1ccc(OC2CCN(c3ccnc(OCC(F)F)c3)C2)cc1 (some centres unmarked) [Example 4.5] showed an IC50 of 166 nM. Compound C[C@H](NC(=O)N(C)C)c1ccc(OC2CCN(c3ccc(F)c(C(F)(F)F)n3)C2)cc1 (some centres unmarked) [Example 1.58] has an IC50 of 55 nM. CCCNc1nccc(N2CCC(Oc3ccc([C@H](C)NC(=O)N(C)C)cc3)C2)c1F (some centres unmarked) [Example 5.6] showed an IC50 of 36 nM. Compound CCC(=O)Nc1nc(C)c(C(=O)N[C@@H](C)c2ccc(O[C@@H]3CCN(c4ccc(OC[C@H]5CC5(F)F)cn4)C3)cc2)s1 [Example 1.144] has an IC50 of 93 nM. In the case of CC(=O)N[C@@H](C)c1ccc(OC2CCN(c3ncc(OCC4CC4(F)F)cc3Cl)C2)cc1 (some centres unmarked) [Example 1.77], the IC50 is reported as 29 nM. For CCN(C)c1cc(N2CC[C@@H](Oc3ccc([C@H](C)NC(C)=O)cc3)C2)c(F)cn1 [Example 10.23], the IC50 was 87 nM. CC(=O)N[C@@H](C)c1ccc(O[C@@H]2CCN(c3cccc(N4CCCC4C)n3)C2)cc1 (some centres unmarked) [Example 10.33] showed an IC50 of 133 nM. With CCC(=O)Nc1nc(C)c(C(=O)N[C@@H](C)c2ccc(O[C@@H]3CCN(c4ccnc(NCC5CC5)c4F)C3)cc2)s1 [Example 1.142] the IC50 was 67 nM. With C[C@H](NC(=O)N1CCOCC1)c1ccc(OC2CCN(c3ccnc(N4CCC(F)(F)C4)c3F)C2)cc1 (some centres unmarked) [Example 3.23] the IC50 was 205 nM. COC(=O)N[C@@H](C)c1ccc(OC2CCN(c3ccc(OCC4CC4(F)F)cn3)C2)cc1 (some centres unmarked) [Example 4.3] was tested, and the IC50 was 59 nM. CC(=O)N[C@@H](C)c1ccc(O[C@@H]2CCN(c3cc(OCC(C)C)ncc3C#N)C2)cc1 [Example 9.56] gave an IC50 of 900 nM. CC(=O)N[C@@H](C)c1ccc(O[C@@H]2CCN(c3ccnc(OCc4ccncc4)c3)C2)cc1 [Example 9.35] showed an IC50 of 584 nM. Work on CC(=O)N[C@@H](C)c1ccc(O[C@@H]2CCN(c3ccnc(OCC4CC4)c3Cl)C2)cc1 [Example 9.82] yielded an IC50 of 35 nM. In the case of COC1CN(c2nccc(N3CC[C@@H](Oc4ccc([C@H](C)NC(C)=O)cc4)C3)c2F)C1 [Example 1.109], the IC50 is reported as 155 nM. Compound CCOc1cnc(N2CCC(Oc3ccc([C@H](C)NC(C)=O)cc3)C2)c(F)c1 (some centres unmarked) [Example 1.9] has an IC50 of 556 nM. Compound CCOc1ccnc(N2CC[C@@H](Oc3ccc([C@H](C)NC(C)=O)cc3)C2)c1F [Example 9.69] has an IC50 of 603 nM. For COc1cc(OCC2CC2)cnc1N1CCC(Oc2ccc([C@H](C)NC(C)=O)cc2)C1 (some centres unmarked) [Example 1.80], the IC50 was 484 nM. CCCOc1cnc(N2CC[C@@H](Oc3ccc([C@H](C)NC(=O)c4sc(NC(C)=O)nc4C)cc3)C2)c(F)c1 [Example 1.48] showed an IC50 of 352 nM. In the case of C[C@H](NC(=O)C(F)F)c1ccc(OC2CCN(c3ccc(OCC4CC4(F)F)cn3)C2)cc1 (some centres unmarked) [Example 2.60], the IC50 is reported as 35 nM.
